# Source: patent US20240300932A1, “N-PHENYLIMINE DERIVATIVE AND PREPARATION METHOD AND USE THEREOF” (Guizhou University, priority 2023, published 2024)
# Key:
# Assay in all cases: Post-emergence herbicidal activity test (stem and leaf spray, pot culture)
# Format in all cases: in vivo
# Conditions in all cases: 3 weeks after spraying
# [1] = system: Echinochloa crusgalli
# Procedure, shortened: (§1)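 Pot-grown weeds in loam (pH 7, 1.63% organic matter) were spray-treated on stems and leaves at the 2- to 3-leaf stage with compound in acetone/Tween 80 plus 1.5 liters/ha methyl oleate at 10, 5 or 2.5 g/mu. Fresh-weight growth control was scored 3 weeks later as grades 0–5.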
# [2] = system: Setaria viridis
# Procedure, shortened: as §1
# [3] = system: Portulaca oleracea
# Procedure, shortened: as §1
# [4] = system: Abutilon theophrasti
# Procedure, shortened: as §1
# [5] = system: Amaranthus retroflexus
# Procedure, shortened: as §1
# [6] = system: Trifoliumre pensL.
# Procedure, shortened: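 Pot-grown weeds in loam (pH 7), greenhouse at 20–30 °C, sprayed once post-emergence at the 2–3-leaf stage. Compound in acetone with Tween 80 plus methyl oleate oil (1.5 L/ha), applied at 10, 5 and 2.5 g/mu by spray tower. Effect scored 3 weeks after spraying, averaged over three repeats.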
SMILES,"Post-emergence herbicidal activity, E. crusgalli (grade) ([1]; dosage 2.5 g/mu)","Post-emergence herbicidal activity, E. crusgalli (grade) ([1]; dosage 5 g/mu)","Post-emergence herbicidal activity, E. crusgalli (grade) ([1]; dosage 10 g/mu)","Post-emergence herbicidal activity, S. viridis (grade) ([2]; dosage 2.5 g/mu)","Post-emergence herbicidal activity, S. viridis (grade) ([2]; dosage 5 g/mu)","Post-emergence herbicidal activity, S. viridis (grade) ([2]; dosage 10 g/mu)","Post-emergence herbicidal activity, P. oleracea (grade) ([3]; dosage 2.5 g/mu)","Post-emergence herbicidal activity, P. oleracea (grade) ([3]; dosage 5 g/mu)","Post-emergence herbicidal activity, P. oleracea (grade) ([3]; dosage 10 g/mu)","Post-emergence herbicidal activity, A. theophrasti (grade) ([4]; dosage 2.5 g/mu)","Post-emergence herbicidal activity, A. theophrasti (grade) ([4]; dosage 5 g/mu)","Post-emergence herbicidal activity, A. theophrasti (grade) ([4]; dosage 10 g/mu)","Post-emergence herbicidal activity, A. retroflexus (grade) ([5]; dosage 2.5 g/mu)","Post-emergence herbicidal activity, A. retroflexus (grade) ([5]; dosage 5 g/mu)","Post-emergence herbicidal activity, A. retroflexus (grade) ([5]; dosage 10 g/mu)","Post-emergence herbicidal activity, Trifoliumre pensL. (grade) ([6]; dosage 2.5 g/mu)","Post-emergence herbicidal activity, Trifoliumre pensL. (grade) ([6]; dosage 5 g/mu)","Post-emergence herbicidal activity, Trifoliumre pensL. (grade) ([6]; dosage 10 g/mu)"
O=C1C2=C(CCCC2)C(=O)N1c1cc(OCc2nc(-c3cccs3)no2)c(Cl)cc1F [Compound A19],1 (Grade 1: the growth control rate is greater than or equal to 5% and less than 20%),2 (Grade 2: the growth control rate is greater than or equal to 20% and less than 40%),3 (Grade 3: the growth control rate is greater than or equal to 40% and less than 60%),2 (Grade 2: the growth control rate is greater than or equal to 20% and less than 40%),3 (Grade 3: the growth control rate is greater than or equal to 40% and less than 60%),4 (Grade 4: the growth control rate is greater than or equal to 60% and less than 85%),4 (Grade 4: the growth control rate is greater than or equal to 60% and less than 85%),5 (Grade 5: the growth control rate is greater than or equal to 85%),5 (Grade 5: the growth control rate is greater than or equal to 85%),5 (Grade 5: the growth control rate is greater than or equal to 85%),5 (Grade 5: the growth control rate is greater than or equal to 85%),5 (Grade 5: the growth control rate is greater than or equal to 85%),5 (Grade 5: the growth control rate is greater than or equal to 85%),5 (Grade 5: the growth control rate is greater than or equal to 85%),5 (Grade 5: the growth control rate is greater than or equal to 85%),4 (Grade 4: the growth control rate is greater than or equal to 60% and less than 85%),5 (Grade 5: the growth control rate is greater than or equal to 85%),5 (Grade 5: the growth control rate is greater than or equal to 85%)
O=C1C2=C(CCCC2)C(=O)N1c1cc(OCc2nc(-c3ccc(OC(F)(F)F)cc3)no2)c(Cl)cc1F [Compound A20],1 (Grade 1: the growth control rate is greater than or equal to 5% and less than 20%),2 (Grade 2: the growth control rate is greater than or equal to 20% and less than 40%),3 (Grade 3: the growth control rate is greater than or equal to 40% and less than 60%),2 (Grade 2: the growth control rate is greater than or equal to 20% and less than 40%),3 (Grade 3: the growth control rate is greater than or equal to 40% and less than 60%),4 (Grade 4: the growth control rate is greater than or equal to 60% and less than 85%),4 (Grade 4: the growth control rate is greater than or equal to 60% and less than 85%),5 (Grade 5: the growth control rate is greater than or equal to 85%),5 (Grade 5: the growth control rate is greater than or equal to 85%),5 (Grade 5: the growth control rate is greater than or equal to 85%),5 (Grade 5: the growth control rate is greater than or equal to 85%),5 (Grade 5: the growth control rate is greater than or equal to 85%),5 (Grade 5: the growth control rate is greater than or equal to 85%),5 (Grade 5: the growth control rate is greater than or equal to 85%),5 (Grade 5: the growth control rate is greater than or equal to 85%),4 (Grade 4: the growth control rate is greater than or equal to 60% and less than 85%),5 (Grade 5: the growth control rate is greater than or equal to 85%),5 (Grade 5: the growth control rate is greater than or equal to 85%)
O=C1C2=C(CCCC2)C(=O)N1c1cc(OCc2nc(-c3cc(F)ccc3Cl)no2)c(Cl)cc1F [Compound A21],1 (Grade 1: the growth control rate is greater than or equal to 5% and less than 20%),2 (Grade 2: the growth control rate is greater than or equal to 20% and less than 40%),3 (Grade 3: the growth control rate is greater than or equal to 40% and less than 60%),2 (Grade 2: the growth control rate is greater than or equal to 20% and less than 40%),3 (Grade 3: the growth control rate is greater than or equal to 40% and less than 60%),4 (Grade 4: the growth control rate is greater than or equal to 60% and less than 85%),4 (Grade 4: the growth control rate is greater than or equal to 60% and less than 85%),5 (Grade 5: the growth control rate is greater than or equal to 85%),5 (Grade 5: the growth control rate is greater than or equal to 85%),5 (Grade 5: the growth control rate is greater than or equal to 85%),5 (Grade 5: the growth control rate is greater than or equal to 85%),5 (Grade 5: the growth control rate is greater than or equal to 85%),5 (Grade 5: the growth control rate is greater than or equal to 85%),5 (Grade 5: the growth control rate is greater than or equal to 85%),5 (Grade 5: the growth control rate is greater than or equal to 85%),4 (Grade 4: the growth control rate is greater than or equal to 60% and less than 85%),5 (Grade 5: the growth control rate is greater than or equal to 85%),5 (Grade 5: the growth control rate is greater than or equal to 85%)
